Measured values published in patent US20220211795A1 (Chenland Nutritionals Inc., priority 2021, published 2022).

What was measured:
Particle size detection = type: physicochemical
Text: 1.2 Particle Size Detection

glioma GL261 cells = assay: Cytotoxicity experiment (CCK8); type: cell-based; details: 1.172-150 μg/mL, 4 h drug then 20 h culture
Method: Gl261 cells in logarithmic growth phase are uniformly inoculated into sterile 96-well plates with 2×10^3 cells per well, and no cells are seeded around the plates, then 100 μL […] is added into each well and cultured under the condition of 37° C. and 5% CO2 for 24 h; remove the culture medium and add 100 μL of drug-containing medium (concentration gradient set at […], 75.000 μg/mL, 37.500 μg/mL, 18.750 μg/mL, 9.375 μg/mL, 4.688 μg/mL, 2.344 μg/mL, and 1.172 μg/mL), the drug-containing medium is removed after culture for 4 h, and 100 μL of medium is added to each well for further culture for 20 h. The culture medium is removed, and culture medium containing 10% CCK8 is added. After incubation for 1 h, the absorbance is measured with a microplate reader, and the cell viability is determined by the following formula […].

[1] = Potential detection (zeta potential); type: physicochemical

- PDI (Particle size detection): 0.545
- Hydrodynamic diameter (Particle size detection; 0.0309 g curcumin+10 ml water suspension): 4.053 μm
- Average zeta potential [1]: −36.5 mv
Compound: COc1cc(/C=C/C(=O)CC(=O)/C=C/c2ccc(O)c(OC)c2)ccc1O [Free Curcumin, Curcumin]
- toxicity to GL261 cells (glioma GL261 cells): no obvious toxicity
